In ChEMBL document CHEMBL1201862, “PubChem BioAssay data set” (2004):
The source made the active and inactive calls.

Assays:
[1] = SK-MEL-5 parental cell viability reduction, dose response, orthogonal assay for MITF inhibitor project, CellTiter-Glo luminescence, dry powder, set 8 (AID 651586); assay type: functional, cell-based
[2] = A375 melanoma cell viability loss, dose response, counter-screen for MITF modulator project, CellTiter-Glo luminescence, dry powder, set 9 (AID 651591); assay type: functional, cell-based; conditions: A-375
[3] = MITF Orthogonal Assay: MALME3 CTG Assay Measured in Cell-Based System Using Plate Reader - 2084-04_Inhibitor_Dose_DryPowder_Activity_Set6.; assay type: functional; conditions: MALME-3
[4] = SK-MEL-5 parental line viability, dose response, MITF inhibitor project, cell-based, CellTiter-Glo, dry powder, set 6 (AID 624429); assay type: functional
[5] = TRPM1 promoter luciferase reporter signal decrease, dose response, MITF inhibitor project, cell-based, SK-MEL-5, dry powder, set 9 (AID 651588); assay type: functional
[6] = cytotoxicity in primary human melanocytes, dose response, cytotoxicity control, cell-based, plate reader, dry powder (AID 651920); assay type: functional
[7] = MALME3 melanoma cell viability reduction, dose response, orthogonal assay for MITF inhibitor project, CellTiter-Glo luminescence, dry powder, set 5 (AID 651584); assay type: functional, cell-based; conditions: MALME-3
[8] = MITF Measured in Cell-Based System Using Plate Reader - 2084-01_Inhibitor_Dose_DryPowder_Activity_Set6.; assay type: functional
[9] = MITF Measured in Cell-Based System Using Plate Reader - 2084-01_Inhibitor_Dose_DryPowder_Activity_Set7.; assay type: functional
[10] = A375 melanoma cell cytotoxicity, dose response, counter-screen for MITF inhibitor project, CellTiter-Glo luminescence, dry powder, set 6 (AID 624488); assay type: functional, cell-based; conditions: A-375
[11] = A375 melanoma cell viability loss, dose response, counter-screen for MITF inhibitor project, CellTiter-Glo luminescence, dry powder, set 4 (AID 624364); assay type: functional, cell-based; conditions: A-375;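 note: A375 melanoma cells are MITF independent so this is a counter screen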
[12] = A375 melanoma cell cytotoxicity, dose response, counter-screen for MITF inhibitor project, CellTiter-Glo luminescence, dry powder, set 7 (AID 624490); assay type: functional, cell-based; conditions: A-375
[13] = MITF Orthogonal Assay: SK-MEL-5 CTG Assay Measured in Cell-Based System Using Plate Reader - 2084-02_Inhibitor_Dose_DryPowder_Activity_Set5.; assay type: functional
[14] = target: T1, Low molecular weight phosphotyrosine protein phosphatase (Homo sapiens, UniProt P24666); test: LMPTP phosphatase inhibitors, dose response, biochemical, OMFP substrate, fluorescence intensity, set 2 (AID 743307); assay type: functional
T1 sequence (P24666 whole entry): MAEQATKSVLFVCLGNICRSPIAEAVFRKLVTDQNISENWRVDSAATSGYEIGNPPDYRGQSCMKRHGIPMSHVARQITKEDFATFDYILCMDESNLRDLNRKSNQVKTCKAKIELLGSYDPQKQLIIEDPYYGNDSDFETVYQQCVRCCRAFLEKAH

[15] = target: T1, Low molecular weight phosphotyrosine protein phosphatase; test: LMPTP phosphatase inhibitors, colorimetric pNPP readout, dose response, orthogonal assay, biochemical, absorbance, pNPP substrate, LMPTP-A isoform, set 2 (AID 743308); assay type: functional
[16] = target: RNA-editing ligase 1, mitochondrial (Trypanosoma brucei brucei, UniProt P86926); test: TbREL1 ligase inhibitors, dose response, biochemical, fluorescence, Trypanosoma brucei (AID 1117295); assay type: functional
Sequence of RNA-editing ligase 1, mitochondrial (P86926 whole entry): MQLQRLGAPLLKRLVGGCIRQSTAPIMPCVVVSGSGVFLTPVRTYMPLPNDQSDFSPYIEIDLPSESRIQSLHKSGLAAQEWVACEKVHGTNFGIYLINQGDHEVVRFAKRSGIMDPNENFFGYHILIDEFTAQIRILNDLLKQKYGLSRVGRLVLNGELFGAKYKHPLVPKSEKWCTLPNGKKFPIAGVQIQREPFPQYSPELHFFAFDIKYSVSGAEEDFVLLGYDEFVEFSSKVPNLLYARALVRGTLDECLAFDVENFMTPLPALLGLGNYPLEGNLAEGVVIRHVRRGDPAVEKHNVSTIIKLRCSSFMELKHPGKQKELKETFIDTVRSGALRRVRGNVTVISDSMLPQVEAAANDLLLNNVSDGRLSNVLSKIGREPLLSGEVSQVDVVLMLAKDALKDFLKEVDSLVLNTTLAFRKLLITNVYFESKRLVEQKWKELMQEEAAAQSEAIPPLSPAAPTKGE

[17] = P. falciparum Dd2 growth inhibitors, dose response, SYBR Green, dry powder samples, set 9 (AID 1159568); assay type: functional, cell-based
[18] = T. cruzi growth inhibition in host cells, dose response, cell-based, plate reader, dry powder, set 2 (AID 652275); assay type: functional
[19] = P. falciparum Dd2 growth inhibitors, dose response, SYBR Green, dry powder samples (AID 1159566); assay type: functional, cell-based;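 note: potency for growth inhibition with lower SYBR green DNA signal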
[20] = P. falciparum ATP4 D1247Y mutant growth inhibitors, dose response, NITD609-resistant line, SYBR Green, dry powder (AID 1159571); assay type: functional, cell-based;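 note: parasites synchronized at ring stage by sorbitol before testing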
[21] = P. falciparum Dd2 growth inhibitors, dose response, SYBR Green, cherry-picked samples (AID 1159567); assay type: functional, cell-based
[22] = P. falciparum 3D7-ScDHODH growth inhibitors, dose response, SYBR Green, dry powder samples (AID 1159570); assay type: functional, cell-based;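 note: parasite growth measured after 72 hours of compound exposure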
[23] = M. tuberculosis H37Rv growth inhibitors, H37Rv strain (AID 1626); assay type: functional
[24] = target: Solute carrier family 12 member 2/member 5 (Homo sapiens, UniProt P55011+Q9H2X9); test: KCC2 and NKCC1 inhibition by rubidium flux, cell-based, NKCC1 counter-screen (AID 1734); assay type: functional, HEK293
[25] = cytotoxicity dependent on PAX8, dose response, cell-based, plate reader, dry powder (AID 743049); assay type: functional
[26] = cytotoxicity in OVCAR8 ovarian cancer cells, dose response, PAX8 project, cell-based, plate reader, dry powder samples (AID 743197); assay type: functional; conditions: OVCAR-8
[27] = PAX2 cell-based inhibition, dose response, selectivity assay for PAX8 inhibitor project, plate reader, dry powder samples (AID 743048); assay type: functional;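 note: HEK293 cells carrying a WT1 promoter luciferase reporter driven by expressed Pax2; potency is for inhibition of Pax2 driven reporter signal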
[28] = cytotoxicity in COV434 cells, dose response, cytotoxicity control for PAX8 inhibitor project, cell-based, plate reader, dry powder, SA7 (AID 743145); assay type: functional
[29] = NIH:OVCAR-3 ovarian cancer cell cytotoxicity, dose response, PAX8 inhibitor project, plate reader, dry powder samples (AID 743044); assay type: functional, cell-based
Paired box protein Pax-8 = Paired box protein Pax-8 (Homo sapiens, UniProt Q06710); test: inhibitors of PAX8-driven TPO luciferase reporter, dose response, RMG-I cells, cherry-pick (AID 687027); assay type: functional, cell-based;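 note: luciferase reporter driven by Pax8 target thyroperoxidase promoter measured by SteadyGlo luminescence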
Sequence of Paired box protein Pax-8 (Q06710 whole entry): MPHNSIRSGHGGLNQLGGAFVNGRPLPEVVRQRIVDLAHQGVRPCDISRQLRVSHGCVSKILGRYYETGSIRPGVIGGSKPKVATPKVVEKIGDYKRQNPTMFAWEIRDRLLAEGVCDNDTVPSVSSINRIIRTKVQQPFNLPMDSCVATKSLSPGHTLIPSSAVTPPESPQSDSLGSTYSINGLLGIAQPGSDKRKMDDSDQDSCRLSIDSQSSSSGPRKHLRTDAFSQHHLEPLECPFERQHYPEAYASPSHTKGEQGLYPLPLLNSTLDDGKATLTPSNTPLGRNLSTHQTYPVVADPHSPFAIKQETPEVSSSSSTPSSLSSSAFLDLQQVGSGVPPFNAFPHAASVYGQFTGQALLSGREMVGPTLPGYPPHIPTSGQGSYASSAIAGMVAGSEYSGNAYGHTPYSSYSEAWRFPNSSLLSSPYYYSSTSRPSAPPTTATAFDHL

[30] = PAX5 activity inhibitors, dose response, selectivity assay for PAX8 inhibitor project, cell-based, plate reader, dry powder samples (AID 743047); assay type: functional;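 note: HEK293 cells carrying a Pax5 driven CD19 promoter luciferase reporter; potency of inhibitors that lower reporter luminescence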
[31] = cytotoxicity in COV362 ovarian cancer cells, dose response, cytotoxicity control for PAX8 inhibitor project, cell-based, plate reader, dry powder, SA12 (AID 743144); assay type: functional
[32] = cytotoxicity in OV-90 ovarian cancer cells, dose response, PAX8 inhibitor project, cell-based, plate reader, dry powder, SA8 (AID 743149); assay type: functional
[33] = target: NAD-dependent protein deacylase sirtuin-5, mitochondrial (Homo sapiens, UniProt Q9NXA8); test: SIRT5 desuccinylase inhibitors, dose response, biochemical, fluorescence imaging, cherry-pick, set 5 (AID 720591);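 note: desuccinylation of succinyl peptide AMC substrate read as fluorescence after trypsin release; potency of inhibitors that lower fluorescence and may act on trypsin instead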
Sequence of NAD-dependent protein deacylase sirtuin-5, mitochondrial (Q9NXA8 whole entry): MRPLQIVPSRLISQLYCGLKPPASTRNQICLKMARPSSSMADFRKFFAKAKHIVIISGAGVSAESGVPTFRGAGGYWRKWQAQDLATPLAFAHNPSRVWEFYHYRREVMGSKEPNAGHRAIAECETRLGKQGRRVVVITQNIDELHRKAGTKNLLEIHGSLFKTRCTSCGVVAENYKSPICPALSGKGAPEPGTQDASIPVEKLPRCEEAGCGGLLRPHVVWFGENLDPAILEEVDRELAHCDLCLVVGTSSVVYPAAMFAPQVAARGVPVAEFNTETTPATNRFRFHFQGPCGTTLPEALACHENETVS

## COC1=C(NS(=O)(=O)c2ccc(Br)cc2)C(=O)c2ccccc2C1=O
[1]
  AC50: 19.8 µM (active)
[2]
  AC50: > 70 µM (inactive)
[3]
  AC50: 34.9 µM (active)
[4]
  AC50: 21.5 µM (active)
[5]
  AC50: 38.3 µM (active)
[6]
  AC50: > 70 µM (inactive)
[7]
  AC50: 34.9 µM (active)
[8]
  AC50: 14.8 µM (active)
[9]
  AC50: 10.4 µM (active)
[10]
  AC50: > 70 µM (inactive)
[11]
  AC50: > 70 µM (inactive)
[12]
  AC50: > 70 µM (inactive)
[13]
  AC50: 12 µM (active)

## COc1ccccc1-c1cc(NCCCN2CCCCC2)c2ccccc2n1
[14]
  IC50: 2.87 µM (active)
[15]
  IC50: 7.13 µM (active)

## C#CCOCCOCCOCCNc1nc(N2CCN(C(=O)[C@H](CCCCN)n3cc([C@@H](N)CC(C)C)nn3)CC2)nc(N2CCN(C(=O)[C@H](Cc3cc4ccccc4[nH]3)n3cc([C@@H](N)CC(C)C)nn3)CC2)n1
[16]
  IC50: > 96.6 µM (inactive)

## CC(C)(C)[S+]([O-])N1Cc2cc(C(=O)NCc3ccc4c(c3)OCO4)nc(-c3cccc(-c4cc5ccccc5o4)c3)c2[C@H]1CCO (some centres undefined)
[17]
  AC50: 2.2 µM (active)
[18]
  AC50: 0.361 µM (active)
[19]
  AC50: 1.16 µM (active)
[20]
  AC50: 1.21 µM (active)
[21]
  AC50: 1.51 µM (active)
[22]
  AC50: 1.46 µM (active)

## O=C(OCC(=O)N1CCN(C(=O)c2ccco2)CC1)c1sc2ccccc2c1Cl
[23]
  IC50: > 100 µM (active)
[24]
  IC50: 24 µM (active)

## C[C@H](CO)N1C[C@H](C)[C@@H](CN(C)Cc2ccc(C(F)(F)F)cc2)Oc2ccc(NS(=O)(=O)c3ccccc3)cc2CC1=O
[25]
  AC50: 53.2 µM (active)
[26]
  AC50: > 70 µM (inactive)
[27]
  AC50: 21 µM (active)
[28]
  AC50: 46.2 µM (active)
[29]
  AC50: 51.5 µM (active)
Paired box protein Pax-8
  AC50: 10.1 µM (active)
[30]
  AC50: 23 µM (active)
[31]
  AC50: > 70 µM (inactive)
[32]
  AC50: 54 µM (active)

## CC1=Nc2cc(C(=O)O)ccc2Sc2ccc(Br)cc21
[33]
  AC50: 18.8 µM (active)
